From patent US7893068B2, “Physiologically active substances” (Mercian Corporation, priority 2002, dated 2011)
Where two headings read alike, the source gives them in different places.

Key:
[1] = Body weight loss (acute toxicity) in the WiDr tumor model; format: in vivo, nude mice; conditions: Dose 2.5 mg/kg, intravenous 5 consecutive days; body weight relative to Day 1
Description: (§1) In order to study solid tumor growth inhibitory activities of the compounds of the formula (I) in vivo, WiDr human colon cancer cells were implanted subcutaneously into the flanks of nude mice. […]. The animals were grouped so that the average of the volumes of the respective groups became uniform, when it reached about 100 mm^3. Control group was made up of 10 mice and 11107D-administering groups were made up of 5 mice. The derivatives were administered for the administering groups for 5 consecutive days by intravenous injection so as to be any of 0.625 mg, 1.25 mg, 2.5 mg, 5 mg and 10 mg/kg/day, and a vehicle was administered to the control group. The tumor volumes on Day 15 were measured, and relative tumor volume ratios (T/C %) were determined setting the tumor volume of the control group as 100%. The body weights on Day 1, Day 5, Day 8, Day 12 and Day 15 (or 16) were measured, and relative body weight variations were determined setting the body weight on Day 1 as 100%. The relative body weight ratios on the day where the body weight reached the minimum were defined as the minimum relative weight ratios and are shown in Table 3.

[2] = Stability in an aqueous solution (HPLC residual ratio); conditions: for Peak area (mAU × sec) after 24 hours / The residual ratios (%): Britton-Robinson's buffer pH 7, 25° C., 24 hours; for Peak area (mAU × sec) initial: Britton-Robinson's buffer pH 7, before incubation
Protocol: The compounds of the formula (I) were dissolved in DMSO in concentrations of 10 to 20 mM, and these were diluted about 500 folds with Britton-Robinson's buffer solution of pH 7. Each of the solutions as sample solutions was incubated at 25° C. for 24 hours.
The sample solutions were analyzed by high performance liquid chromatography before and after incubation, and the residual ratios of the tested substances in the sample solutions after incubation were determined from the peak areas of the obtained chromatograms.

[3] = test system: VEGF promoter; test: VEGF transcription-suppressing activity (VEGF promoter-PLAP reporter, U251/1-8 cells, hypoxia); format: cell-based; conditions: Homo sapiens, read-out: VEGF transcription-suppressing activities (IC50: nM)
Description: In order to prepare reporter system reflecting transcription from VEGF promoter, VEGF promoter sequence was cloned, and inserted in secretory alkaline phosphatase (PLAP) vector to construct reporter vector.
In order to obtain the promoter region of human VEGF, VEGF genomic DNA was cloned from phage library. PCR primers having the sequences described in Sequence Numbers 1 and 2 were designed based on VEGF cDNA (GenBank accession number: X62568) and a fragment having about 340 bp was obtained by carrying out PCR. Human genomic phage library (Human genomic library, Clontech Co.) was screened using this as a probe to obtain VEGF genomic DNA. The DNA was digested by EcoRI, and the resultant fragments were inserted in the EcoRI site of pUC18. Finally, pUC18-VEGFA containing about 5.4 kb of VEGF 5′ flanking region was obtained. The pUC18-VEGFA was digested by KpnI/NheI, VEGF promoter region of about 2.3 kb obtained was inserted in the multi cloning site KpnI/NheI of secretory alkaline phosphatase (PLAP) vector (Goto et al, Mol. Pharmacol., 49, 860-873, 1996), and thus, VEGF-PLAP vector was constructed.
The above-mentioned VEGF-PLAP vector was transfected in the U251 cell cultured in the DULBECCO-modified eagle medium (DMEM; manufactured by SIGMA Co., Ltd.) containing 10% fetal calf serum, and the cells were cultured in the presence of 1 mg/mL G418 (Merck Co.) to establish G418 resistant stable clone (U251/1-8 cell).
It was confirmed that U251/1-8 cell secreted PLAP under hypoxic condition (2% O2 incubator) in the same manner as in the report (Cell. Mol. Biol. Res. 40, 35-39, 1994) and was a reporter system reflecting the transcription from VEGF promoter. The screening of the compound suppressing VEGF production which was induced by hypoxic stimulation was carried out below using the clone.
In order to remove the influence of alkaline phosphates in serum, U251/1-8 cells were rinsed twice with the adequate amount of PBS (Phosphate buffered saline), diluted in the DMEM medium containing 10% of serum in which alkaline phosphates was inactivated by the treatment of 65° C. for 20 min., and dispensed in 96-well plates by 4×10^4 cells/180 μL.
After culturing at 37° C. overnight in a CO2 incubator (5% CO2), 20 μL of the above-mentioned incubation solution containing the test compound diluted with 3-fold succession was added, and then they were incubated in a hypoxic (2% […]) incubator for 18 hours. With respect to the PLAP activity in the culture supernatants, 10 μL of the supernatants was added to 50 μL of 0.28 M Na2CO3—NaHCO3 buffer solution (pH 10.0, 8.0 mM MgSO4), and finally 50 μL of alkaline phosphatase substrate (LUMISTEIN, Genomescience Co.) was added. After reacting for one hour, the alkaline phosphatase activity of the PLAP was measured by detecting the chemical luminescence by a micro plate reader (Perkin-Elmer Co.). The PLAP activity under normoxia was set as 0%, the PLAP activity of cell which was treated under hypoxia was set as 100%, and the concentration suppressing the PLAP activity by 50% was set as the IC50 value of PLAP. The IC50 values of 11107D derivatives shown in Examples were measured, and the IC50 values of representative 11107D derivatives are shown in Table 1.

[4] = test system: WiDr human colon cancer cells; test: Solid tumor growth inhibitory activities, WiDr human colon tumor model in nude mice; format: in vivo; conditions: Mus musculus, iv, 360 h, read-out: Growth inhibitory activities in the WiDr human solid tumor model (T/C %)
Description: as §1

[5] = test system: WiDr human colon cancer cells; test: Growth inhibitory activities on WiDr human colon cancer cells (MTT); format: cell-based; conditions: 72 h, three days incubation
Protocol: WiDr human colon cancer cells cultured in DULBECCO-modified eagle medium (DMEM; manufactured by SIGMA Co., Ltd.) containing 10% fetal calf serum, penicillin (100 unit/mL) and streptomycin (100 μg/mL) were dispensed in 96-well plates by 2×10^3 cells/well. After culturing overnight in a CO2 incubator, 20 μL of the above-mentioned incubation solution containing the test compound diluted with 3-fold succession was added, followed by incubation. After three days, 50 μL of 3.3 mg/mL MTT solution was added, followed by culturing for further one hour. Then, formazan formed by the reduction by the action of living cells was extracted with 100 μL of DMSO, the absorbance (A540/A660) was determined and was set as the index of the number of living cells.
The concentrations of the compounds of the formula (I) at which the growth of WiDr human colon cancer cells are inhibited 50% were determined.

SMILES	the minimum relative weight ratios [1]	Peak area (mAU × sec) after 24 hours [2] [mAU × sec]	The residual ratios (%) [2] [%]	Peak area (mAU × sec) initial [2] [mAU × sec]	IC50 ([3]; U-251, 18 h) [nM]	response vs control in vivo at 2.5 mg/kg [4] [%]	IC50 [5] [nM]	IC50 ([3]; U-251, U251/1-8 cells, hypoxic incubator 18 hours, PLAP activity) [nM]
CCC(O)C(C)C1OC1CC(C)(O)/C=C/C=C(\C)C1OC(=O)CC(O)CCC(C)(O)C(OC(=O)N2CCN(C)CC2)/C=C/C1C (centres unmarked) [Compound 12, (8E,12E,14E)-3,6,16,21-Tetrahydroxy-6,10,12,16,20-pentamethyl-7-((4-methylpiperazin-1-yl)carbonyl)oxy-18,19-epoxytricosa-8,12,14-trien-11-olide]	0.85	5169	94.9	5450	10.2	21	–	–
CCC(O)C(C)C1OC1CC(C)(O)/C=C/C=C(\C)C1OC(=O)CC(O)CCC(C)(OC(=O)N2CCCN(CC)CC2)C(OC(C)=O)/C=C/C1C (centres unmarked) [Compound 136, (8E,12E,14E)-7-Acetoxy-6-((4-ethylhomopiperazin-1-yl)carbonyl)oxy-3,16,21-trihydroxy-6,10,12,16,20-pentamethyl-18,19-epoxytricosa-8,12,14-trien-11-olide]	–	3579	95.4	3750	1.2	–	0.8	–
CCC(O)C(C)C1OC1CC(C)(O)/C=C/C=C(\C)C1OC(=O)CC(O)CCC(C)(O)C(OC(=O)N2CCN(CC3CC3)CC2)/C=C/C1C (centres unmarked) [Compound 27, (8E,12E,14E)-7-((4-(Cyclopropylmethyl)piperazin-1-yl)carbonyl)oxy-3,6,16,21-tetrahydroxy-6,10,12,16,20-pentamethyl-18,19-epoxytricosa-8,12,14-trien-11-olide]	–	–	–	–	3.7	–	1.2	–
CCC(O)C(C)C1OC1CC(C)(O)/C=C/C=C(\C)C1OC(=O)CC(O)CCC(C)(O)C(OC(=O)N2CCN(Cc3ccccc3)CC2)/C=C/C1C (centres unmarked) [Compound 24, (8E,12E,14E)-7-((4-Benzylpiperazin-1-yl)carbonyl)oxy-3,6,16,21-tetrahydroxy-6,10,12,16,20-pentamethyl-18,19-epoxytricosa-8,12,14-trien-11-olide]	–	–	–	–	5.5	–	5.3	–
CCC(O)C(C)C1OC1CC(C)(O)/C=C/C=C(\C)C1OC(=O)CC(O)CCC(C)(O)C(OC(=O)CCc2ccccc2)/C=C/C1C (centres unmarked) [Compound 142, (8E,12E,14E)-3,6,16,21-Tetrahydroxy-6,10,12,16,20-pentamethyl-7-(3-phenylpropanoyl)oxy-18,19-epoxytricosa-8,12,14-trien-11-olide]	–	3705	94.6	3916	11.2	–	4.9	–
CCOC1(C)CCC(O)CC(=O)OC(/C(C)=C/C=C/C(C)(O)CC2OC2C(C)C(O)CC)C(C)/C=C/C1OC(=O)N1CCN(C)CC1 (centres unmarked) [Compound 127, (8E,12E,14E)-6-Ethoxy-3,16,21-trihydroxy-6,10,12,16,20-pentamethyl-7-((4-methylpiperazin-1-yl)carbonyl)oxy-18,19-epoxytricosa-8,12,14-trien-11-olide]	–	–	–	–	–	–	0.7	2.4
CCC(O)C(C)C1OC1CC(C)(O)/C=C/C=C(\C)C1OC(=O)CC(O)CCC(C)(OC)C(OC(=O)N2CCCN(C3CCCCC3)CC2)/C=C/C1C (centres unmarked) [Compound 95, (8E,12E,14E)-7-((4-Cyclohexylhomopiperazin-1-yl)carbonyl)oxy-3,16,21-trihydroxy-6-methoxy-6,10,12,16,20-pentamethyl-18,19-epoxytricosa-8,12,14-trien-11-olide]	–	–	–	–	1.2	–	0.5	–
CCC(O)C(C)C1OC1CC(C)(O)/C=C/C=C(\C)C1OC(=O)CC(O)CCC(C)(OC)C(OC(=O)N2C[C@@H]3C[C@H]2CN3CC)/C=C/C1C (stereo in doubt) [Compound 122, (8E,12E,14E)-7-(((1S,4S)-5-Ethyl-2,5-diazabicyclo[2.2.1]heptan-2-yl)carbonyl)oxy-3,16,21-trihydroxy-6-methoxy-6,10,12,16,20-pentamethyl-18,19-epoxytricosa-8,12,14-trien-11-olide]	–	4620	94.8	4872	4.4	–	1.1	–
CCCN1CCN(C(=O)OC2/C=C/C(C)C(/C(C)=C/C=C/C(C)(O)CC3OC3C(C)C(O)CC)OC(=O)CC(O)CCC2(C)O)CC1 (centres unmarked) [Compound 25, (8E,12E,14E)-3,6,16,21-Tetrahydroxy-6,10,12,16,20-pentamethyl-7-((4-propylpiperazin-1-yl)carbonyl)oxy-18,19-epoxytricosa-8,12,14-trien-11-olide]	–	–	–	–	2.9	–	1.2	–
CCC(O)C(C)C1OC1CC(C)(O)/C=C/C=C(\C)C1OC(=O)CC(O)CCC(C)(O)C(OC(=O)N2CCCN(Cc3ccccc3)CC2)/C=C/C1C (centres unmarked) [Compound 17, (8E,12E,14E)-7-((4-Benzylhomopiperazin-1-yl)carbonyl)oxy-3,6,16,21-tetrahydroxy-6,10,12,16,20-pentamethyl-18,19-epoxytricosa-8,12,14-trien-11-olide]	–	–	–	–	3.9	–	2.6	–
CCC(O)C(C)C1OC1CC(C)(O)/C=C/C=C(\C)C1OC(=O)CC(O)CCC(C)(O)C(OC(=O)N(C)C2CCN(C)CC2)/C=C/C1C (centres unmarked) [Compound 15, (8E,12E,14E)-3,6,16,21-Tetrahydroxy-6,10,12,16,20-pentamethyl-7-(N-methyl-N-(1-methylpiperidin-4-yl)carbamoyloxy)-18,19-epoxytricosa-8,12,14-trien-11-olide]	0.82	–	–	–	–	36	–	–
CCC(OC)C(C)C1OC1CC(C)(O)/C=C/C=C(\C)C1OC(=O)CC(O)CCC(C)(O)C(OC(=O)N2CCN(C(C)C)CC2)/C=C/C1C (centres unmarked) [Compound 130, (8E,12E,14E)-3,6,16-Trihydroxy-7-((4-isopropylpiperazin-1-yl)carbonyl)oxy-21-methoxy-6,10,12,16,20-pentamethyl-18,19-epoxytricosa-8,12,14-trien-11-olide]	–	4583	95.1	4819	–	–	–	–
